Data as given in patent US20210369738A1, “PRODUCTION METHOD OF TELOMERASE ACTIVATORS AND TELOMERASE ACTIVATORS OBTAINED BY THIS METHOD” (IZMIR YUKSEK TEKNOLOJI ENSTITUSU, priority 2017, published 2021).

Experiments:
[1] = as a telomerase activator; cited from earlier work
[2] = target: T1, telomerase enzyme (Homo sapiens, UniProt O14746); experiment: Telomerase activation, TELOTAGGG PCR ELISAPLUS kit, HEKn cells; assay type: cell-based; conditions: 24-hour incubation
T1 construct: host or cells: HEKn (human primary epidermal keratinocytes)
Description: Telomerase activation tests were performed on selected molecules as follows; For culturing HEKn (Human Primer Epidermal Keratinocyte, ATCC; PCS-200-010) cells, the cell medium containing the components given in Table 2 is prepared and the cells are grown in the Dermal Cell Basal medium (PCS-200-030) supplemented with components in 5% CO2 environment at 37° C.
Telomerase activation was performed using the TELOTAGGG PCR ELISAPLUS kit (Roche; 12013789001, 16× version), a highly sensitive and quantitative method, according to the manufacturer's protocol, as follows:
After application of the selected molecules to HEKn cell lines at the defined dose interval and completion of 24-hour incubation, cells are collected and counted by hemocytometer. 2×10^5 cells are transferred to clean microcentrifuge tubes and then centrifuged at 3000×g for 5 min (at 4° C.). The supernatant is removed and the cells in the pellet are suspended with 200 μl of lysis buffer (Solution 1) and incubated on ice for 30 min. After incubation the lysates are centrifuged at 16,000×g for 20 min (at 4° C.) and the cooled supernatant is transferred to clean microcentrifuge tubes.
PCR is designed for sample group and control group. 25 μl reaction mixture (Solution 2) and 5 μl internal standard solution (Solution 3) are transferred to the PCR tubes for both the positive and negative sample as well as for the sample to be investigated for activation or the prepared master mixture is taken to a 30 μl PCR tube to contain this content. For the samples to be tested, 2 μl of each PCR sample is added from the cell lysate. For the control group, 1 μl of the low or high concentration TS8 control sample (Solution 4 or 5) is transferred to a separate PCR tube. From the lysis buffer (Solution 1), 1 μl is transferred to a separate PCR tube.
For each sample, 10 μl of the denaturing agent (Solution 7) is added to the nuclease-free 96-well plate. 2.5 μl of the amplified product is transferred to the plate and incubated for 10 min at +15 and +25° C. 100 μL Hybridization Buffer T (Solution 8) is added to a portion of the samples, 100 μL Hybridization Buffer IS (Solution 9) is added to the other portion. After homogenization, 100 μl of the reaction mixture is transferred to the MP module coated with streptavidin and the MP module is carefully closed with the special coating paper. After completion of the transfer process, the MP module is shaken at 300 rpm for 2 hours at 37° C. After incubation, the hybridization solutions are removed. Each well is washed 3 times with 250 μl of 1× wash buffer (Solution 10). The prepared anti-DIG-HRP working solution (Solution 11) is added to each of the wells. The MP module is sealed with special coating paper and incubated for 30 min at 15-25° C. with shaking at 300 rpm and the solution is carefully removed from the wells. Each well is washed 5 times in 1× wash buffer (Solution 10). From room temperature TMB substrate solution (Solution 13), 100 μl is added to each well. The MP module is covered with special coating paper and incubated at 15-25° C. for 10-20 minutes at 300 rpm with shaking. The color change is terminated by adding the post-incubation termination agent (Solution 14). The samples are measured at […] in a microplate reader for 30 min. Compounds showing telomerase activation in the 1.5-fold and higher levels according to DMSO used as a negative control were considered active.

T1 sequence (O14746 whole entry): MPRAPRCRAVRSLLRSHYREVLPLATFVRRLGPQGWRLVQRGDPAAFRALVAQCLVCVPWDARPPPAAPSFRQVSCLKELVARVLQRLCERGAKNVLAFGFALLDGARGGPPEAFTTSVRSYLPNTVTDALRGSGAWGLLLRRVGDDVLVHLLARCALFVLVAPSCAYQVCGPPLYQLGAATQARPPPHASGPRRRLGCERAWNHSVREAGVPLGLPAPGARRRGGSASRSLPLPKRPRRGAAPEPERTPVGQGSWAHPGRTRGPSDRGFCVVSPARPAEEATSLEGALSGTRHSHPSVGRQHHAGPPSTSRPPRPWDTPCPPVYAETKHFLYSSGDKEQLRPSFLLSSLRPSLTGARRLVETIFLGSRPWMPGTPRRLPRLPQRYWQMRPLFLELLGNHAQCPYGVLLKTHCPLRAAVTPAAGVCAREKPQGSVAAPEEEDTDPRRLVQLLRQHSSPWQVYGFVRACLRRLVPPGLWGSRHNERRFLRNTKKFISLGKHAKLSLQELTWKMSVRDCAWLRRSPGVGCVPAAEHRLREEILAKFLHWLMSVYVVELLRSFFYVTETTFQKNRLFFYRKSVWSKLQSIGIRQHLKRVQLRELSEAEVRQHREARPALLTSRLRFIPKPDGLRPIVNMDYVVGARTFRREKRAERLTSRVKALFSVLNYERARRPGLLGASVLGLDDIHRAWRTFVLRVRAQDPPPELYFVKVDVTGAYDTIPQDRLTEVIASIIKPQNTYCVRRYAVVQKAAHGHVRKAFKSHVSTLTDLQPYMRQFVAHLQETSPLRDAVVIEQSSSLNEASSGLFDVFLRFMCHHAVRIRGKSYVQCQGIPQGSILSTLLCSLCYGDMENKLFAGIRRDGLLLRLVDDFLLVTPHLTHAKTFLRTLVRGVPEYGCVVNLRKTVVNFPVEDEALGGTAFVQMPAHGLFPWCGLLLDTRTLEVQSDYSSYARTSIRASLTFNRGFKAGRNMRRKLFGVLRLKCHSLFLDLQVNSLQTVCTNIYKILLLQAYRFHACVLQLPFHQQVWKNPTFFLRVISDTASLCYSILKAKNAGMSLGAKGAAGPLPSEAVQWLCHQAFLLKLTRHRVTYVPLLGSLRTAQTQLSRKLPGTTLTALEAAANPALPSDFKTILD

Fold increase over negative control (DMSO) ([2]; 30 nM) [fold] | Fold increase over negative control (DMSO) ([2]; 100 nM) [fold] | Fold increase over negative control (DMSO) ([2]; 300 nM) [fold] | Fold increase over negative control (DMSO) ([2]; 1000 nM) [fold] | Fold increase over negative control (DMSO) ([2]; 2 nM) [fold] | Fold increase over negative control (DMSO) ([2]; 10 nM) [fold] | Fold increase over negative control (DMSO) ([2]; 50 nM) [fold] | Fold increase over negative control (DMSO) ([2]; 0.5 nM) [fold] | Fold increase over negative control (DMSO) ([2]; 0.1 nM) [fold] | Compound | bioavailability [1] [%]
– | – | – | – | – | – | – | – | – | CC(C)(O)[C@@H]1CC[C@](C)([C@H]2[C@@H](O)C[C@@]3(C)C4C[C@H](O)C5C(C)(C)[C@@H](O)CC[C@@]56C[C@@]46CC[C@]23C)O1 (some centres unmarked) [Cycloastragenol] | 5
1.73 | 0.72 | 0.74 | 1.2 | – | – | – | – | – | CC1(C)C(=O)C[C@H](O)[C@]23C[C@]24CC[C@]2(C)[C@@H]([C@@]5(C)CC[C@@H](C(C)(C)O)O5)[C@@H](O)C[C@@]2(C)C4C[C@H](O)C13 (some centres unmarked) [Molecule 1] | –
2.36 | 0.78 | 1.24 | 1.07 | – | – | – | – | – | CC1(C)C(=O)CC[C@]23C[C@]24CC[C@]2(C)[C@@H]([C@@]5(C)CC[C@@H](C(C)(C)O)O5)[C@@H](O)C[C@@]2(CO)C4C[C@H](O)C13 (some centres unmarked) [Molecule 3] | –
– | – | 2.13 | – | 2.13 | 2.22 | 2.4 | – | – | CC(C)(O)[C@@H]1CC[C@](C)([C@H]2[C@@H](O)C[C@@]3(C)C4C[C@H](O)C5C(C)(C)[C@@H](O)CC[C@@]56C[C@@]46C[C@@H](O)[C@]23C)O1 (some centres unmarked) [Molecule 4] | –
2.37 | – | – | – | 10 | 6.38 | – | 9.23 | – | CC(C)(O)[C@@H]1CC[C@](C)([C@H]2[C@@H](O)C[C@@]3(C)C4C[C@H](O)C5C(C)(C)[C@@H](O)CC[C@@]56C[C@@]46C[C@H](O)[C@]23C)O1 (some centres unmarked) [Molecule 6] | –
4.6 | – | – | – | 9.35 | 9.95 | – | 8.43 | – | CC1(C)OC(=O)CC[C@]23C[C@]24CC[C@]2(C)[C@@H]([C@@]5(C)CC[C@@H](C(C)(C)O)O5)[C@@H](O)C[C@@]2(C)C4C[C@H](O)C13 (some centres unmarked) [Molecule 10] | –
3.17 | – | – | – | 1.9 | 1.73 | – | 2.08 | – | CC(C)(O)[C@@H]1CC[C@](C)([C@H]2[C@@H](O)C[C@@]3(C)C4C[C@H](O)[C@@H](C(C)(C)O)[C@@]5(CCC(=O)O)C[C@@]45CC[C@]23C)O1 (some centres unmarked) [Molecule 11] | –
0.84 | – | – | – | 2.14 | 1.78 | – | 4.65 | – | CC1(C)C(=O)CC[C@]23C[C@]24CC[C@]2(C)[C@@H]([C@@]5(C)CC[C@@H](C(C)(C)O)O5)[C@@H](O)C[C@@]2(C)C4C[C@H](O)C13 (some centres unmarked) [Molecule 12] | –
– | – | 0.53 | – | 2.53 | 1.62 | 1.6 | – | – | CC(C)(O)[C@@H]1CC[C@](C)([C@H]2[C@@H](O)C[C@@]3(C)C4C[C@H](O)C5C(C)(C)[C@@H](O)CC[C@]5(C)C4=C[C@@H](O)[C@]23C)O1 (some centres unmarked) [Molecule 14] | –
– | – | – | – | 2.78 | 0.95 | – | 2.31 | 0.98 | CC(C)(O)[C@@H]1CC[C@](C)([C@H]2[C@@H](O)C[C@@]3(C)C4C[C@H](O)C5C(C)(C)[C@@H](O)CC[C@]5(C)C4=C[C@H](O)[C@]23C)O1 (some centres unmarked) [Molecule 16] | –
– | – | – | – | 1.33 | 1 | 1.57 | 0.42 | – | CC(C)(O)[C@@H]1CC[C@](C)([C@H]2[C@@H](O)C[C@@]3(C)C4C[C@H](O)C5C(C)(C)[C@@H](O)CC[C@]5(C)C4=CC(=O)[C@]23C)O1 (some centres unmarked) [Molecule 17] | –
1.93 | – | – | – | 1.24 | 11.32 | – | 2.65 | – | CC(C)(O)[C@@H]1CC[C@](C)([C@H]2[C@@H](O)C[C@@]3(C)C4C[C@H](O)[C@@H](C(C)(C)O)[C@](C)(CCC(=O)O)C4=CC[C@]23C)O1 (some centres unmarked) [Molecule 19] | –
7.86 | – | – | – | 5.23 | 6.04 | – | 9.01 | – | C=C(C)[C@@H]1[C@@H](O)CC2C(=CC[C@]3(C)[C@@H]([C@@]4(C)CC[C@@H](C(C)(C)O)O4)[C@@H](O)C[C@@]23C)[C@@]1(C)CCC(=O)O (some centres unmarked) [Molecule 20] | –
1.18 | – | – | – | 1.43 | 1.04 | – | 9.25 | – | CC1(C)C(=O)CC[C@]2(C)C3=CC[C@]4(C)[C@@H]([C@@]5(C)CC[C@@H](C(C)(C)O)O5)[C@@H](O)C[C@@]4(C)C3C[C@H](O)C12 (some centres unmarked) [Molecule 21] | –
